US20060171912A1, “Diiodomethyl-p-tolylsulfone as a particulate dispersion in a liquid solvent” (priority 2005, published 2006)
Read-outs that look alike come from different tables or passages of the source.

Legend:
[1] = tested on: Malassezia furfur (ATCC 14521); experiment: Minimum Inhibitory Concentration (MIC) agar dilution test; assay type: cell-based; conditions: for MIC: M. furfur, mDixon agar, 30°, 4-5 days; for Retained Activity: dispersed particle form (in water) vs. dissolved in an effective solvent (DMSO)
Experimental: ^1The Minimum Inhibitory Concentration is indicative of anti-fungal efficacy. Generally, the lower the value of the composition, the better its anti-fungal efficacy, due to increased inherent ability of the anti-dandruff agent to inhibit the growth of microorganisms.
Malassezia furfur was grown in a flask containing mDixon medium (see E. Gueho, et al. Antoinie Leeuwenhoek (1996), no. 69, 337-55, which description is incorporated by reference herein). Dilutions of solubilized anti-microbial active were then added to test tubes containing molten mDixon agar. M. furfur inoculum was added to each tube of molten agar, the tube vortexed, and the contents poured into separate sterile petri dishes. […] The lowest tested dilution of anti-microbial active that yields no growth is defined as the Minimal Inhibitory Concentration (MIC).
Experimental Procedure • 1) Malassezia furfur was grown in a 125 ml Erlenmeyer flask containing 50 ml “mDIXON” medium at 200 rpm and 30° C. until turbid. • 2) Selected dilutions were prepared using an appropriate dilution series, of the anti-microbial active or combination in solvent, which allowed the sample active to be solubilized prior to addition to the final test agar. For each concentration of the ZPT samples, the solvent was “DMSO”; for other samples, the solvent was water or “DMSO” or other suitable solvent. • 3) 0.25 ml dilutions of anti-microbial active were added to test tubes containing 9.5 ml molten “mDIXON” agar (held at 45° C. in a water bath). • 4) 0.25 M. furfur inoculum (adjusted to 5×10^5 cfu/ml by direct count) was added to each test tube of molten agar. • 5) Each tube was vortexed, and the contents poured into separate petri dishes. • 6) After the agar solidified, the plates inverted and incubated at 30° for 4-5 days. • 7) The plates were then observed for visible M. furfur growth. Particle Size Determination Method

[2] = cited from earlier work

MIC ([1]; Dispersed in Water): 2.0 ppm | MIC ([1]; Malassezia furfur, ATCC14521, Dissolved in DMSO, read-out: MIC): 2 µg/mL
SMILES: Cc1ccc(S(=O)(=O)C(I)I)cc1 [diiodomethyl-p-tolylsulfone, Diiodomethyl-p-tolylsulfone]
Retained Activity [1]: about 100% | Retained Activity ([1]; listed as AMICAL 48): 100% | Retained Activity ([1]; listed as Diiodomethyl-p-tolylsulfone): 100% | water solubility [2]: less than 5 ppm
